One series concerns Shay ulceration in rats. The series is described as follows: Effect on Shay ulceration in rats. The series is classed as in vivo. The following applies: for Inhibition (Shay ulceration): 10 rats; for Inhibition (Shay ulceration) / ED50: 13 hours after drug treatment; for Safety Margin LD50/ED50 (Shay ulceration): LD50 mice p.o. / ED50 Shay rats i.d., Table 3; for ED50: Rattus norvegicus, i.d., rats. Here is the method: (§1) As illustrative evidence of the remarkable high gastric antisecretory activity of the compounds of the invention, tests were conducted on, and comparisons made with, closely similar compounds in the prior art. The following Tables 2 and 3 show the results of such tests according to previously identified techniques from the literature.
(§2) Effect on Shay ulceration in rats and acute toxicity in mice.
Each drug was given either intraduodenally (i.d.) immediately after
pylorus ligation in a volume of 0.5 ml/100 g of body weight. The animals
were sacrificed 13 hours after drug treatment.

Series [1] relates to aspirin-induced gastric ulcers in pylorus-ligated rats. Description: Effect on aspirin-induced gastric ulcers in pylorus-ligated rats. The settings on record: for Inhibition (aspirin-induced gastric ulcers): 10 rats; for Inhibition (aspirin-induced gastric ulcers) / ED50: 7 hrs after aspirin 100 mg/kg p.o.; for Safety Margin LD50/ED50 (aspirin-induced ulcers): LD50 mice p.o. / ED50 pylorus-ligated rats i.d., Table 2; for ED50: Rattus norvegicus, i.d., pylorus-ligated rats. It counts as in vivo. Here is the method:
as §1
Effect on aspirin-induced gastric ulcers in pylorus-ligated
Each drug was given […] intraduodenally (i.d.) immediately after pyloru
ligation in a volume of 0.5 ml/100 g of body weight. Animals were
sacrificed 7 hrs after aspirin (100 mg/kg, p.o.) administration.

Another series can be described thus: Acute toxicity in mice. The following applies: mouse, in vivo, po, Table 2, read-out: LD50 (Table 2, head printed "50 (mg/kg) P.O. Orally"). The procedure: as §1
rats and acute toxicity in mice.
as §2

SMILES strings stand for the structures.

Broadly, the ED50 is the dose at which the effect has come halfway, by size or by number of responders. On to `NC(=S)C(c1ccccc1)c1cccnn1` (stereo not drawn) [Ex. 1, 2-Phenyl-2-(3-pyridazinyl)thioacetamide], for which the “Inhibition (Shay ulceration)” value with Shay ulceration in rats (10 mg/kg i.d.) stood at 33.3%; with Shay ulceration in rats (30 mg/kg i.d.), 95.8%. The “Safety Margin LD50/ED50 (Shay ulceration)” value with Shay ulceration in rats turned out to be 78.40. The ED50 was found to be 12.5 mg/kg in the series with Shay ulceration in rats and 11.5 mg/kg in series [1]. Further, the “Inhibition (aspirin-induced gastric ulcers)” value in series [1] (10 mg/kg i.d.) came to 48.6%; in series [1] (30 mg/kg i.d.), 97.7%. Besides, in series [1], the “Safety Margin LD50/ED50 (aspirin-induced ulcers)” value is recorded as 85.12. For the same molecule, in the series “Acute toxicity in mice”, the LD50 stood at 980 mg/kg.
As for `Cc1ccc(C(C(N)=S)c2ccccc2)nn1` (stereo not drawn) [Ex. 2, 2-Phenyl-(6-methyl-3-pyridazinyl)thioacetomide], the figures for the “Inhibition (Shay ulceration)” value with Shay ulceration in rats (10 mg/kg i.d.) and with Shay ulceration in rats (30 mg/kg i.d.) were 50.0% and 91.7%, respectively. In addition, the “Safety Margin LD50/ED50 (Shay ulceration)” value in the series on Shay ulceration in rats came to 154.54. Further, the ED50 in the series with Shay ulceration in rats stood at 11 mg/kg; in series [1] it was 21 mg/kg. The entries for the “Inhibition (aspirin-induced gastric ulcers)” value in series [1] (10 mg/kg i.d.) and in series [1] (30 mg/kg i.d.) were 3.2% and 89.0%, respectively. Moreover, the “Safety Margin LD50/ED50 (aspirin-induced ulcers)” value in series [1] was found to be 80.95. Also, in “Acute toxicity in mice”, the LD50 came out at 1700 mg/kg.
Turning to `NC(=S)C(c1ccccc1)c1ncccn1` (stereo not drawn) [U.S. Pat. No. 3,624,085 Ex. 9], the “Inhibition (Shay ulceration)” value is 28.2% in the series with Shay ulceration in rats (10 mg/kg i.d.) and 65.0% with Shay ulceration in rats (30 mg/kg i.d.). Moreover, in the series on Shay ulceration in rats, the “Safety Margin LD50/ED50 (Shay ulceration)” value was determined as 46.15. Moreover, the figures for the 50% effective dose (ED50) (in the series with Shay ulceration in rats; in series [1]) were 26 mg/kg and 18.5 mg/kg, respectively. Besides, the figures for the “Inhibition (aspirin-induced gastric ulcers)” value in series [1] (10 mg/kg i.d.) and in series [1] (30 mg/kg i.d.) were 22.3% and 74.0%, respectively. Also, in series [1], the “Safety Margin LD50/ED50 (aspirin-induced ulcers)” value was determined as 64.86. Further, the LD50 in “Acute toxicity in mice” was determined as 1200 mg/kg.
For `NC(=S)C(c1ccccc1)c1cnccn1` (stereo not drawn) [U.S. Pat. No. 3,624,085 Ex. 12], the “Inhibition (Shay ulceration)” value is recorded as 18.3% with Shay ulceration in rats (10 mg/kg i.d.) and 57.7% in the series with Shay ulceration in rats (30 mg/kg i.d.). Moreover, in the series with Shay ulceration in rats, the “Safety Margin LD50/ED50 (Shay ulceration)” value is 33.00. Also, the ED50 in the series on Shay ulceration in rats came to 28 mg/kg; in series [1] it was 30 mg/kg. For the same molecule, the “Inhibition (aspirin-induced gastric ulcers)” value in series [1] (10 mg/kg i.d.) is reported as 15.4%; in series [1] (30 mg/kg i.d.), 50.8%. The “Safety Margin LD50/ED50 (aspirin-induced ulcers)” value in series [1] was 30.80. In addition, in “Acute toxicity in mice”, the LD50 is 924 mg/kg.
For the molecule `CCC(C(N)=S)c1ccccn1` (stereo not drawn) [U.S. Pat. No. 3,686,190 Ex. 1], the “Inhibition (Shay ulceration)” value in the series on Shay ulceration in rats (10 mg/kg i.d.) is 12.0%; in the series with Shay ulceration in rats (30 mg/kg i.d.), 46.5%. For the same molecule, the “Safety Margin LD50/ED50 (Shay ulceration)” value in the series with Shay ulceration in rats is listed as 17.70. Further, the median effective dose (ED50) in the series on Shay ulceration in rats amounted to 34 mg/kg; in series [1] it was 52 mg/kg. For the same molecule, the “Inhibition (aspirin-induced gastric ulcers)” value is reported as 11.3% in series [1] (10 mg/kg i.d.) and 45.7% in series [1] (30 mg/kg i.d.). In addition, the “Safety Margin LD50/ED50 (aspirin-induced ulcers)” value in series [1] was determined as 12.88. In the series “Acute toxicity in mice”, the LD50 amounted to 670 mg/kg.

Source of the values: US4242512A, “Novel thioamide derivatives containing a pyridazine group” (Morishita Pharmaceutical Co., Ltd., priority 1979, dated 1980).
